Results: patent publication US20240025875A1, “A COMPOUND AS A THYROID HORMONE BETA RECEPTOR AGONIST AND USE THEREOF” (SUNSHINE LAKE PHARMA CO., LTD., priority 2020, published 2024)

Assays:
[1] = target: T1, TRβ (Homo sapiens, UniProt P10828); test: LanthaScreen TR-FRET Thyroid Receptor beta Coactivator Assay (in vitro binding activity); conditions: TR beta-LBD
T1 construct: 5 μL of 4×TR beta/alfa-LBD; purchased Invitrogen PV4686
T1 sequence (P10828 217-461 limits assumed): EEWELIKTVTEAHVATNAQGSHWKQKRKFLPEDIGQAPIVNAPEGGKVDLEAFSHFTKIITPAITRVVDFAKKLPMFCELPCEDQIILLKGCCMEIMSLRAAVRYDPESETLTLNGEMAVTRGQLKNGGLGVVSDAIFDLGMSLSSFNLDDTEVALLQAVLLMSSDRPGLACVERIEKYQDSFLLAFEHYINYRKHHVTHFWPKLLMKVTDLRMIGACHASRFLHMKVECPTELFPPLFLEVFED
Protocol: (§1) 2. Detection of the Binding Activity of the Compound of the Present Invention to TRα or TRβ In Vitro
(§2) Test Materials • LanthaScreen TR-FRET Thyroid Receptor beta Coactivator Assay kit was purchased from Invitrogen, Cat. No. PV4686; • LanthaScreen TR-FRET Thyroid Receptor alfa Coactivator Assay kit was purchased from Invitrogen, Cat. No. PV4687.
(§3) The method was experimented with LanthaScreen TR-FRET Thyroid Receptor beta/alfa Coactivator Assay kit. The test compound was dissolved in DMSO and diluted 3 times to a total of 10 concentrations, and then diluted with TR-FRET Coregulator Buffer C in the kit to form a solution containing 2% DMSO, 10 μL of the solution containing 2% DMSO was taken into a 384-well plate, then 5 μL of 4×TR beta/alfa-LBD, 5 μL of a mixture containing 0.4 μM fluorescein-SRC2-2 and 8 nM Tb anti-GST antibody were added into each well, mixed thoroughly, and incubated at room temperature for 1 h in the dark. After 1 h, BMG LABTECH's PHERAstar FSX microplate reader was used to read the fluorescence value (RFU) at […]. The TR-FRET ratio was calculated by dividing the emission signal at 520 nm by the emission signal at 495 nm. Graph Pad Prism 5 software was used to draw the curve and calculate the EC50 value. The in vitro binding activity test results of some of the compounds of the examples of the present invention are shown in Table 1 below.

[2] = target: T2, TRα (Homo sapiens, UniProt P10827); test: LanthaScreen TR-FRET Thyroid Receptor alfa Coactivator Assay (in vitro binding activity); conditions: TR alfa-LBD
T2 construct: 5 μL of 4×TR beta/alfa-LBD; purchased Invitrogen PV4687
Protocol: as §1, §2, §3

[3] = Pharmacokinetic determination in SD rats (i.v. and i.g.); assay type: in vivo; conditions: for AUC(0-inf) / AUC(0-t) / Cmax / clearance / half-life / Vd: male, Sprague-Dawley (SD), rat, plasma; for Vd: read-out: VSS
Source text: Test purposes: The following method was used to determine the pharmacokinetics of the compound of the present invention.
Test Materials: • Experimental reagents and test samples used: Propranolol (internal standard), methanol, ammonium acetate, K2EDTA (potassium ethylenediaminetetraacetic acid), formic acid, acetonitrile MTBE (methyl tert-butyl ether). KolliphorHS15 (macrogol 12 hydroxystearate), DMSO (dimethyl sulfoxide) are commercially available • SD rats: male, 180-220 g, 7-8 weeks old, purchased from Human Slack Experimental Animal Co., Ltd.
Each test sample prepared was completely dissolved in a mixture of 5% DMSO+5% KolliphorHS 15+90% Saline according solubility property thereof.
Samples were processed by liquid-liquid extraction, chromatographically separated, quantitatively analyzed by multiple reaction ion monitoring (MRM) on a triple quadrupole tandem mass spectrometer, and the concentration of the results was calculated by instrument quantitative software.
30 μL of plasma sample was precisely pipetted, added with 250 μL of internal standard, and vortexed to mix thoroughly. Plasma samples was extracted once with 1 mL of MTBE, centrifuged at 13,000 rpm for 2 min at 4° C. 800 μL of the supernatant was sucked out, evaporated to dryness in a 96-well nitrogen blower, and the residue was reconstituted with 150 μL of methanol/water (v/v=50/50), vortexed to mix, and injected with an injection volume of 8 μL.
LC/MS/MS method was used to determine the content of the test compound in rat plasma after administration of different compounds.
Pharmacokinetic parameters were calculated using a noncompartmental method by WinNonLin 6.1 software.

T2 sequence (P10827 163-410 isoform P10827-2 limits assumed, other chains not shown): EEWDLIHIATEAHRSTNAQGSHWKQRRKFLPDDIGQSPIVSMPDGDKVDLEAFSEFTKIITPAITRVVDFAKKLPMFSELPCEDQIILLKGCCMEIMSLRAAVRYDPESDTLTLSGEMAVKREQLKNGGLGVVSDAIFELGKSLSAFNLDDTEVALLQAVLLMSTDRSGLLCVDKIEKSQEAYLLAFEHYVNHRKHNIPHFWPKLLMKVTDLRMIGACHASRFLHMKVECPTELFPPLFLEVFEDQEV

SMILES	EC50 [1] [µM]	EC50 [2] [µM]	F ([3]; ig, 5 mg/kg) [%]	AUC(0-inf) ([3]; iv, 1 mg/kg) [ng·h/mL]	AUC(0-t) ([3]; iv, 1 mg/kg) [ng·h/mL]	Cmax ([3]; iv, 1 mg/kg) [ng/mL]	clearance ([3]; iv, 1 mg/kg) [mL/min/kg]	half-life ([3]; iv, 1 mg/kg) [h]	Vd ([3]; iv, 1 mg/kg) [L/kg]	AUC(0-inf) ([3]; po, ig, 5 mg/kg) [ng·h/mL]	AUC(0-t) ([3]; po, ig, 5 mg/kg) [ng·h/mL]	Cmax ([3]; po, ig, 5 mg/kg) [ng/mL]	half-life ([3]; po, ig, 5 mg/kg) [h]
O=C1c2ccc(Oc3c(Cl)cc(-n4ncc(=O)[nH]c4=O)cc3Cl)cc2CCN1Cc1ccc(F)cc1 [Example 20, 2-(3,5-dichloro-4-((2-(4-fluorobenzyl)-1-oxo-1,2,3,4-tetrahydroisoquinolin-6-yl)oxy)phenyl)-1,2,4-triazine-3,5(2H,4H)-dione]	0.012	> 100	115.1	16400	16300	3990	1.01	3.16	0.251	94400	93700	10400	3.57
Cc1ccc(CN2CCc3cc(Oc4c(Cl)cc(-n5ncc(=O)[nH]c5=O)cc4Cl)ccc3C2=O)cc1 [Example 21, 2-(3,5-dichloro-4-((2-(4-methylbenzyl)-1-oxo-1,2,3,4-tetrahydroisoquinolin-6-yl)oxy)phenyl)-1,2,4-triazine-3,5(2H,4H)-dione]	0.019	> 100	81.9	1020	1020	2760	16.3	1.02	0.308	4180	4160	4730	1.44
O=C1c2ccc(Oc3c(Cl)cc(-n4ncc(=O)[nH]c4=O)cc3Cl)cc2CCN1Cc1ccncc1 [Example 24, 2-(3,5-dichloro-4-((1-oxo-2-(pyridin-4-ylmethyl)-1,2,3,4-tetrahydroisoquinolin-6-yl)oxy)phenyl)-1,2,4-triazine-3,5(2H,4H)-dione]	0.075	> 100	117.7	3790	3720	4020	4.39	1.16	0.337	223000	21900	7790	2.65
O=C1c2ccc(Oc3c(Cl)cc(-n4ncc(=O)[nH]c4=O)cc3Cl)cc2CCN1c1ccc(F)cc1 [Example 28]	0.017	> 100	97.6	9640	8730	8400	1.73	2.91	0.246	47000	47000	15500	2.29
O=C1c2ccc(Oc3c(Cl)cc(-n4ncc(=O)[nH]c4=O)cc3Cl)cc2CCN1Cc1ccc(C(F)(F)F)cc1 [Example 29, 2-(3,5-dichloro-4-((1-oxo-2-(4-(trifluoromethyl)benzyl)-1,2,3,4-tetrahydroisoquinolin-6-yl)oxy)phenyl)-1,2,4-triazine-3,5(2H,4H)-dione]	0.091	> 100	66.2	56000	48700	4270	0.297	8.47	0.194	236000	159000	10300	14.1
O=C1c2ccc(Oc3c(Cl)cc(-n4ncc(=O)[nH]c4=O)cc3Cl)cc2CCN1Cc1cccc(C(F)(F)F)c1 [Example 34, 2-(3,5-dichloro-4-((2-(3-(trifluoromethyl)benzyl)-1-oxo-1,2,3,4-tetrahydroisoquinolin-6-yl)oxy)phenyl)-1,2,4-triazine-3,5(2H,4H)-dione]	0.021	> 100	111	22400	18800	3020	0.744	9.87	0.531	124000	110000	8460	7.67
